Assays:
[1] = permeability test through hairless mouse skin (flow-through cell); format: in vitro ADME; details: for maximum value of the permeability rate of the drug per unit area of the skin, base agent Acetone: 1% (w/v) solution in acetone as donor; for maximum value of the permeability rate of the drug per unit area of the skin, base agent Acetone / maximum value of the permeability rate of the drug per unit area of the skin, base agent IPM / maximum value of the permeability rate of the drug per unit area of the skin, base agent Liquid paraffin / maximum value of the permeability rate of the drug per unit area of the skin, base agent PG: extirpated hairless mouse dorsal skin, 37° C., up to 24 hours; for maximum value of the permeability rate of the drug per unit area of the skin, base agent IPM: saturated solution in isopropyl myristate (IPM) as donor; for maximum value of the permeability rate of the drug per unit area of the skin, base agent Liquid paraffin: saturated solution in liquid paraffin as donor; for maximum value of the permeability rate of the drug per unit area of the skin, base agent PG: saturated solution in propylene glycol (PG) as donor
Procedure: Preliminary Test 1 (permeability test through hairless mouse skin)
A permeability test through hairless mouse skin was conducted for the following 1-12 test solutions:
First, dorsal skin of a hairless mouse was extirpated, which was set to a flow-through cell (effective area: 1 cm^2) with facing the dermis side to the receptor side, where a water of 37° C. was circulating the periphery of the cell. Next, 1 mL of Test solution 1 was charged in a cell on the stratum corneum side of the skin as a donor solution. While using a mixed solution of 40% (v/v) polyethylene glycol 400/physiological saline as a receptor layer, sampling of the receptor solution was carried out at a speed of 5 mL/hour every 2 hours up to 24 hours. For receptor solutions obtained at respective times, the flow volume was measured precisely and the drug concentration was measured by using high-performance liquid chromatography. From the obtained measurement values of the flow volume and drug concentration, the permeability rate per 1 hour was calculated to obtain the maximum value of the permeability rate of the drug per unit area of the skin.

[2] = tested on: yeast-induced paw inflammation and nociception; assay: yeast-induced paw inflammation and nociception test in rats; format: in vivo; details: 100 μL of 3% (w/v) solution in acetone applied to footpad for 3 hours; measured 3 hours after yeast injection; p<0.01 vs control
Text: Preliminary Test 2 (yeast-induced paw inflammation and nociception test in rats) First, SD male rats with weight of around 130 g were used to measure a pain threshold value (g) by using analgesimeter (Analgesy 7200, Ugo Basile) according to the method of Randall & […]. and […] method for measurement of analgesic activity on inflamed tissue. (1957) Arch. Int. Pharmacodyn. 4, 409-419], while defining removal reaction against pressure irritation to a right hind footpad as the index, and they were grouped such that there was no difference between the average pain threshold values of both groups. […] On the other hand, acetone was applied to the control group. After sufficient drying after the application, the rats were housed in separate cages without covering treatment. At this time, for the purpose of preventing oral drug intake, a collar was attached to all the rats including the control group. After 3 hours from the application described above, valdecoxib remaining at the applied site was wiped off with absorbent cotton having been dipped in slightly warm water and, immediately after the wipe, each 100 μL of a yeast suspension (20% Baker's Yeast) was injected subcutaneously to all the rats including the control group to induce inflammation. […] The obtained results are illustrated in FIG. 1.

[3] = tested on: carrageenin-induced paw edema; assay: carrageenin-induced paw edema test in rats; format: in vivo; details: 100 μL of 3% (w/v) solution in acetone applied to footpad for 3 hours; measured 3 hours after carrageenin; p<0.01 vs control
Text: Preliminary Test 3 (carrageenin-induced paw edema test in rats)
First, SD male rats with weight of around 110 g were used to measure a paw volume (mL) of a right hind footpad by using a water-replacement type paw volume determining device (Model TK-101 CMP, MUROMACHI KIKAI) according to the method of Fujihira et al. [Fujihira Eichi, Screening no Hoho to Mondaiten—Adjuvant Kansetsuen ni yoru Koenshoyaku no Kenteiho (Methods and Problems of Screening—Assay of Antiinflammatory Agent by Adjuvant Arthritis) (1971) Oyo Yakuri (Pharmacometrics) 5,169-183], and they were grouped such that there was no difference between the average paw volume values of both groups. Next, each 100 μL of a 3% (w/v) solution of valdecoxib in acetone was applied to the right hind footpad. On the other hand, acetone was applied to the control group. After sufficient drying after the application, the rats were housed in separate cages without covering treatment. […] After additional 3 hours, the paw volume at the right hind footpad was measured again to calculate an edema ratio (%) according to the following edema ratio calculation method (calculation formula): Edema ratio (%)=[(paw volume after 3 hours from inflammation (mL)−paw volume at ordinary time (mL))/paw volume at ordinary time (mL))]×100 to evaluate the antiinflammatory effect of valdecoxib. […]

Structure (SMILES): CS(=O)(=O)c1ccc(C2=C(c3ccccc3)C(=O)OC2)cc1 [rofecoxib, 3-phenyl-4-(4-methylsulfonylphenyl)-2(5H)-furanone]
- maximum value of the permeability rate of the drug per unit area of the skin, base agent Acetone [1]: 0.09 μg/cm^2/hr
- maximum value of the permeability rate of the drug per unit area of the skin, base agent IPM [1]: 0.00 μg/cm^2/hr
- maximum value of the permeability rate of the drug per unit area of the skin, base agent Liquid paraffin [1]: 0.00 μg/cm^2/hr
- maximum value of the permeability rate of the drug per unit area of the skin, base agent PG [1]: 0.00 μg/cm^2/hr

Structure (SMILES): Cc1ccc(-c2cc(C(F)(F)F)nn2-c2ccc(S(N)(=O)=O)cc2)cc1 [celecoxib, 4-[5-(4-methylphenyl)-3-(trifluoromethyl)pyrazole-1-yl]benzolsulfonamide]
- maximum value of the permeability rate of the drug per unit area of the skin, base agent Acetone [1]: 0.3 μg/cm^2/hr
- maximum value of the permeability rate of the drug per unit area of the skin, base agent IPM [1]: 2.04 μg/cm^2/hr
- maximum value of the permeability rate of the drug per unit area of the skin, base agent Liquid paraffin [1]: 0.00 μg/cm^2/hr
- maximum value of the permeability rate of the drug per unit area of the skin, base agent PG [1]: 0.90 μg/cm^2/hr

Structure (SMILES): Cc1onc(-c2ccccc2)c1-c1ccc(S(N)(=O)=O)cc1 [valdecoxib, 4-(5-methyl-3-phenylisoxazole-4-yl)benzenesulfonamide]
- maximum value of the permeability rate of the drug per unit area of the skin, base agent Acetone [1]: 0.59 μg/cm^2/hr
- skin permeability (in words) ([1]; compared with celecoxib and rofecoxib, Table 1): very high skin permeability
- maximum value of the permeability rate of the drug per unit area of the skin, base agent IPM [1]: 2.97 μg/cm^2/hr
- maximum value of the permeability rate of the drug per unit area of the skin, base agent Liquid paraffin [1]: 0.41 μg/cm^2/hr
- maximum value of the permeability rate of the drug per unit area of the skin, base agent PG [1]: 4.10 μg/cm^2/hr
- analgesic action (pain threshold value at right hind footpad, FIG. 1) [2]: significant analgesic action
- antiinflammatory action (edema ratio, FIG. 2) [3]: significant antiinflammatory action
